According to US5393883A, “Antiviral combinations and compounds therefor” (Burroughs Wellcome Co., priority 1988, dated 1995):
Where two headings read alike, the source gives them in different places.

Test system: HSV-2
Test: dye uptake method: prevention of HSV-2 cytopathic effect in Vero cells, acyclovir with ribonucleotide reductase inhibitor (Compound A)
Format: cell-based
Procedure: The ribonucleotide reductase inhibitors of the present invention were shown by use of the dye uptake method described by McLaren, Ellis and Hunter in Antivir. Res. 3, 223-234 (1983) to potentiate the in vitro antiviral effects of acyclovir. Vero cells (20,000 cells/well) were incubated in microtiter wells for 24 hours. Various concentrations of acyclovir and the ribonucleotide reductase inhibitors were added and the cells were infected with 30 infectious particles/well of HSV-1 or HSV-2. After 3 days incubation, the antiviral effects were assessed by determining the prevention of the cytopathic effects of the viruses. Examples of the synergistic antiherpes activity of 2-acetylpyridine (4,5-dihydro-5-thioxo-1,3,4-thiadiazol-2-yl)-hydrazone (Compound A) and acyclovir (ACV) are given below.

IC50 Calculated (theoretical value for the additive combined effects of ACV and Compound A) (ACV alone)	IC50 (Human alphaherpesvirus 2, Vero, 72 h, read-out: IC50 Observed (concentration of ACV required to inhibit HSC2 replication by 50%))	IC50 (Human alphaherpesvirus 2, Vero, read-out: IC50 of Compound A alone (inhibition of virus replication))	SMILES	inhibition at 0.4 µM (Human alphaherpesvirus 2, Vero, 0.4 μM Compound A alone, read-out: % inhibition of virus replication by Compound A alone)	inhibition at 0.9 µM (Human alphaherpesvirus 2, Vero, 0.9 μM Compound A alone, read-out: % inhibition of virus replication by Compound A alone)	inhibition at 1.3 µM (Human alphaherpesvirus 2, Vero, 1.3 μM Compound A alone, read-out: % inhibition of virus replication by Compound A alone)
5.7 µM	5.77 µM		Nc1nc2c(ncn2COCCO)c(=O)[nH]1 [ACV, 9-(2-hydroxyethoxymethyl)guanine, reference compound]			
		1.6 µM	CC(=NNc1n[nH]c(=S)s1)c1ccccn1 [Compound A, 2-acetylpyridine (4,5-dihydro-5-thioxo-1,3,4-thiadiazol-2-yl)-hydrazone]	0%	0%	21%
